Like-named read-outs stand apart in the source and are kept apart here.
How the values were obtained:
aortic cultures = conditions: based on rate of hydrolysis of [32P]pyrophosphate
[1] = human, in vivo
Method: To determine whether PPi metabolism is altered in hemodialysis patients, plasma levels and dialytic clearance of PPi were measured in stable hemodialysis patients. Predialysis plasma samples were obtained from 15 patients in an outpatient dialysis unit and from 23 inpatients. The inpatients were clinically stable and were admitted for transplant evaluation or for dialysis access problems.

injured aortas = tested on: injured aortas
Method: Injured aortas were incubated for 6 days in DMEM containing 3.8 mM PO4^−3 and varying concentrations of pyrophosphate. Results are means of at least 4 aortic rings.

[2] = human, in vivo; remark: listed apart in the source
Method: Samples were drawn immediately before and immediately after dialysis from the predialyzer tubing. The lines to the left and right indicate the mean values before and after dialysis respectively.
(§1) Several studies were undertaken to determine the extent of PPi removal with dialysis. […] In 17 patients, some of whom were included in the predialysis data, plasma PPi concentration was measured before and after dialysis (FIG. 3).
Dialysate was collected during 4 treatments in 4 different patients order to measure the total amount of PPi removed.

[3] = 4 L PPi in physiologic saline, 400 ml/min, dialysate without calcium 800 ml/min, 2.1 m^2 cellulose acetate membrane
Method: FIG. 2 is an exemplary graph illustrating the results of in vitro dialysis of pyrophosphate. […] The concentration of pyrophosphate was measured at the times indicated. The line represents a single exponential fit.
as §1

normal aortas = assay: Calcification of normal aortas cultured in high-PO4 medium with added enzymes; format: cell-based, rat; conditions: enzyme added to culture in DMEM with 3.8 mM PO4 (inorganic pyrophosphatase 12-20 units/ml, 9 days)

Compound | Estimated pyrophosphate concentration 3 days after adding (aortic cultures; 5 μM added) [µM] | Estimated pyrophosphate concentration 3 days after adding (aortic cultures; 10 μM added) [µM] | Estimated pyrophosphate concentration 3 days after adding (aortic cultures; 30 μM added) [µM] | Mean plasma [PPi] lower in hemodialysis patients than in normal subjects [1] [%] | Inhibition of calcification in injured aortas (injured aortas; 2.5 M pyrophosphate, 6 days in DMEM with 3.8 mM PO4) | Concentrations at which inhibition of vascular calcification occurs in vitro (injured aortas; concentrations normally present in human plasma) [µM] | Concentration that maximally inhibited calcification in injured aortas (injured aortas; cultured rat aortas) | Decrease of plasma PPi concentration after dialysis, range [2] | In vitro dialyzer clearance of PPi [3] [%] | Effect on calcification of normal aortas (normal aortas)
O=P(O)(O)OP(=O)(O)O [pyrophosphate] | 18 | 3.1 | 7.9 | 31 | no inhibition | 3 to 5 | approximately 3 μM | 4-59% | 36 | 
Alkaline phosphatase |  |  |  |  |  |  |  |  |  | induced calcification
